US10738018B2, “Compounds for therapeutic use” (Dart NeuroScience, LLC, priority 2016, dated 2020)

Experiments:
[1] = Conversion of Formula (I) compounds to HNK upon administration to a subject; type: in vivo; conditions: possible two-step process: hydrolysis under acid conditions, then enzymatic conversion by esterase action
Source text: In this prophetic example, exemplary compounds of Formula (I) yield HNK upon administration to a subject, such as a patient in a clinical trial, in one or more steps. For example, in one possible pathway illustrated in the following schematic, exemplary compounds of Formula (I) may yield HNK in a two-step process, consisting of hydrolysis in Step 1 under acid conditions, such as those in the stomach, and subsequent enzymatic conversion by esterase action.

mice = conditions: cited from earlier work

Compound | conversion to HNK upon administration [1] | antidepressant activity (mice)
CC(O)C1=N[C@@]2(c3ccccc3Cl)CCC[C@@H](O1)C2=O (stereo partly drawn) [Example 2, (1R,5R)-5-(2-chlorophenyl)-3-(1-hydroxyethyl)-2-oxa-4 azabicyclo[3.3.1]non-3-en-9-one] | may give rise to HNK and lactic acid | –
N[C@@]1(c2ccccc2Cl)CCC[C@@H](O)C1=O [(2R,6R)-hydroxynorketamine] | – | has antidepressant activity
